{"source": "patent US10711027B2", "about": "“DNA polymerase beta inhibitors” (The Johns Hopkins University, priority 2016, dated 2020)", "key": {"HeLa cells [1]": {"test_system": "HeLa cells", "assay": "Clonogenic assay for cell survival", "format": "cell-based, human", "conditions": "for cell death, individual treatment: pro-13 5 μM, pro-1 5 μM, MMS 0.1 mM; for enhancement (potentiation) of MMS cytotoxicity: compared to individual agents", "procedure": "HeLa (human cervical carcinoma) cells were maintained in Dulbecco's Modified Eagle's Medium (DMEM), supplemented with 10% fetal bovine serum (FBS), 100 U mL^−1 of penicillin and 100 μg mL^−1 of streptomycin at 37° C. in a humidified incubator at 5% CO2. […] At 90% confluency, there are around 1.5×10^7 cells in one dish of 150 mm×25 mm. Cell viability assay. […] After the indicated time, the medium was removed from the cell culture by aspiration, and washed once with PBS. A stock solution of bleomycin sulphate (1 mM) in DMSO was diluted in the culture medium to 2 μM and then added to the plates keeping the quantity of DMSO constant at 1% for all tests. Cells were then incubated for 2 h at 37° C. in a CO2 incubator. The medium was then subsequently replaced with fresh DMEM-FBS and incubation was continued for an additional 1 or 2 h at 37° C. in a CO2 incubator. […] A portion (10 μL) of the cell suspension was thoroughly mixed with 10 μL of 0.4% solution of trypan blue in PBS (pH 7.2 to 7.3), and placed on a counting slide (BIO-RAD) to count the % of live cells using a TC20 automated cell counter (BIO-RAD). A control experiment without treating with bleomycin sulphate was carried out in parallel. All the experiments were carried out at least 3 times, and each experiment consisted of 3 replicates.\nAfter overnight incubation at 37° C. in a humidified atmosphere of 5% CO2, cells were subjected to the appropriate DNA damaging conditions (or controls). For alkylation experiments, cells were incubated with MMS (0, 0.1, or 0.2 mM), with or without pro-13 (5 μM) for 1 or 2 h. For experiments involving recovery after MMS treatment, the medium containing MMS and/or pro-13 was replaced after 2 h with fresh medium with or without pro-13 (5 μM) and incubation continued for 2-8 h. For BLM experiments, cells were incubated with BLM (2 μM), with or without pro-13 (5 μM) for 2 h, at which time the medium was replaced with fresh medium containing only pro-13 (5 μM) and incubation was continued for 2 h. The growth medium was then removed from each well and the cells were washed with PBS (2×1 mL). […] The single cell suspensions were collected in 1.6 mL tubes and counted using a Bio-Rad TC20 Automated Cell Counter. Stock solutions of single cell suspensions were made in two groups for each concentration with 500 cells/mL (for untreated control) and 1500 cells/mL (for treated cells), respectively. These cells were seeded in 6 well plates (well size; 35 mm×18 mm) in 2 mL of 10% DMEM-FBS. The plates were incubated in humidified atmosphere with 5% CO2 for 7 days. After 7 days, the growth medium was discarded and the attached cells were treated with 0.2% w/v crystal violet solution. The excess dye was washed with water and the colonies were counted under a stereomicroscope. Plating efficiencies (PE) and survival fractions (SF) were calculated as follows: PE=number of colonies[…]number of cells seeded; SF=PE[…]PE (control)."}, "HeLa cells [2]": {"test_system": "HeLa cells", "assay": "AP/dRP site accumulation in genomic DNA (aldehyde reactive probe)", "format": "cell-based, human", "source_text": "Evidence that pro-13 leads to BER inhibition in HeLa cells was obtained by determining its effect on the level of aldehyde reactive probe (ARP) sites (Table 1). ARP is routinely used to quantify AP sites in DNA, and has been employed to validate Ape1 inhibition, but dRP detection via this method was not known. Rai et al., 2012; Dorjsuren et al., 2012; Ide et al., 1993; Asaeda et al., 1998. […] Inhibition of Pol β (and/or Pol λ) should lead to a build-up of dRP sites instead of AP, which would be indistinguishable from AP using ARP (Scheme 11). […] The level of AP/dRP sites in the genomic DNA isolated from HeLa cells treated with MMS, pro-13 or a combination, was subsequently measured. Following treatment with the DNA damaging agent (1 h), the medium was replaced with fresh medium with or without pro-13 (5 μM), and the cells were incubated an additional 23 h. The level of ARP reactive sites increased approximately 3-fold when cells were treated with a combination of MMS and pro-13 compared to just the alkylating agent (Table 1), consistent with the inhibition of BER in cells treated with the proinhibitor.\nHeLa cells (approximately 1×10^7) were plated in 150 mm×25 mm dishes and treated with DMSO (1% final concentration), MMS (0.3 or 0.4 mM), or pro-13 (5 μM) alone or with a combination of MMS (0.3 or 0.4 mM), and pro-13 (5 μM) for 1 h at 37° C. The cellular medium was then replaced with fresh DMEM-FBS and incubation was continued for 23 h at 37° C. in a CO2 incubator in the absence or presence of pro-13 (5 μM). Cells were then harvested with 0.25% Trypsin-EDTA, and the genomic DNA of each sample was isolated according to Dojindo Genomic DNA isolation kit (www.dojindo.com/TechnicalManual/Manual_GKO3.pdf). The concentration of genomic DNA was measured at 260 nm and adjusted to 100 ng/μL. An aliquot of purified DNA (1 μg) was labeled with 10 μL of aldehyde reactive probe (ARP) reagent (N′-aminooxymethylcarbonylhydrazino-D-biotin), and AP/dRP sites were determined using the DNA damage quantification kit from Dojindo Molecular Technologies (DK02-12) by measuring the absorbance at 650 nm using an ELISA microplate reader (BioRad)."}, "HeLa cells [3]": {"test_system": "HeLa cells", "assay": "Comet assay to visualize DNA damage", "format": "cell-based, human", "conditions": "BLM 2 μM 2 h", "procedure": "Bleomycin sulphate treatment of HeLa cells was carried out exactly in the same way as described above. The only difference was that approximately […] HeLa cells were plated in each well of the 6 wells culture plate. After the required incubation steps, the medium was aspirated from the cell culture, and washed with PBS (3×) by adding 5 mL of PBS to each well, scratching with a cell scraper (3 cm blade) and transferring the cells to a 15 mL Falcon tube. Cells were pelleted by centrifuging at 3000 g for 10 min at room temperature. Cells were resuspended in PBS and pelleted again. For the comet assay, cells were suspended in 2 mL PBS/well and counted (generally approximately 1×10^7/mL). An aliquot (10 μL) of the cell suspension was diluted to 1×10^5 cells/mL using PBS and used in an Oxiselect™ Comet Assay Kit (Cell Biolabs, INC. Catalog number STA-350) according to the product manual (www.cellbiolabs.com/sites/default/files/STA-350-comet-assay-kit.pdf). In brief, cell samples were combined with Comet Agarose at 1:10 ratio (v/v), titrurated with a pipette to mix, and immediately pipette 75 μL/well onto the OxiSelect™ Comet Slide. […] View slides by a fluorescence microscopy using a FITC filter. […] The relative tail lengths were determined with Open Comet software."}, "Ape1": {"biological_target": "Ape1 (Homo sapiens, UniProt P27695)", "sequence (P27695 whole entry)": "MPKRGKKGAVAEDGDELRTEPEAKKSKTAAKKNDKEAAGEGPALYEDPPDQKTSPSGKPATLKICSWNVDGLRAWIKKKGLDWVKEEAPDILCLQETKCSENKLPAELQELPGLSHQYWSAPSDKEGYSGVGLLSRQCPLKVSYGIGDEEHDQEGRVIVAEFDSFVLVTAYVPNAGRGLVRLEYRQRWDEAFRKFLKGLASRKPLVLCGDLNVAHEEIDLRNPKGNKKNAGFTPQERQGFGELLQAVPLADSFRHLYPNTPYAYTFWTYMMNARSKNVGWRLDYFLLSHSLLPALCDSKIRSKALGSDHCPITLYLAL", "assay": "Ape1 activity on a duplex containing AP", "format": "biochemical"}}, "note": "“And” between values parts separate entries of the source, which are not always exact repeats. Identical values can stand only once. “Also recorded” adds a separate entry of the source."}
{"compound": "COS(C)(=O)=O", "note": "[MMS, methyl methanesulfonate, reference compound]", "values": [{"measurement": "cell death, individual treatment", "setting": "HeLa cells [1]; 2 h", "value": 15, "unit": "%"}, {"measurement": "cells survived", "setting": "HeLa cells [1]; MMS 0.2 mM without proinhibitor, 2 h", "value": 25, "unit": "%"}, {"measurement": "AP/dRP sites/10^5 bp", "setting": "HeLa cells [2]; HeLa, MMS 0.3 mM, no pro-13", "value": "9.2 ± 1.2", "unit": "sites/10^5 bp"}, {"measurement": "AP/dRP sites/10^5 bp", "setting": "HeLa cells [2]; HeLa, MMS 0.4 mM, no pro-13", "value": "11.0 ± 1.5", "unit": "sites/10^5 bp"}]}
{"compound": "bleomycin [BLM]", "values": [{"measurement": "DNA damage (tail length)", "setting": "HeLa cells [3]", "value": "confirms DNA damage; also recorded: increase in the tail length"}, {"measurement": "cell death", "setting": "HeLa cells [1]; BLM 2 μM alone 2 h, 2 h recovery", "value": "No observable cell death"}]}
{"compound": "COc1cc(Cl)c(/C=N/OC2C[C@H](n3cc(CNC(=O)c4cc5c(O)cccc5cc4O)c(=O)[nH]c3=O)O[C@@H]2COP(=O)(O)OCC2C[C@H](O)O[C@@H]2O)c(Cl)c1O", "note": "(stereo partly drawn) [Compound 13]", "values": [{"measurement": "effect on Ape1 activity", "setting": "Ape1", "value": "does not affect"}]}
{"compound": "COc1cc(Cl)c(/C=N/OC2C[C@H](n3cc(CNC(=O)c4cc5c(O)cccc5cc4O)c(=O)[nH]c3=O)O[C@@H]2COP(=O)(O)OCC2C[C@H](OC(C)=O)O[C@@H]2OC(C)=O)c(Cl)c1O", "note": "(stereo partly drawn) [pro-13]", "values": [{"measurement": "cytotoxicity of proinhibitor alone", "setting": "HeLa cells [1]; 5 μM", "value": "modest cytotoxic effects"}, {"measurement": "cell death", "setting": "HeLa cells [1]; 5 μM alone, 1 h", "value": 2, "unit": "%"}, {"measurement": "cells survive", "setting": "HeLa cells [1]; 5 μM alone, 2 h", "value": 93, "unit": "%"}, {"measurement": "synergism with MMS", "setting": "HeLa cells [1]; 5 μM, MMS 0.1 or 0.2 mM, 1 or 2 h", "value": "synergistic effects"}, {"measurement": "cytotoxicity of proinhibitor alone", "setting": "HeLa cells [1]; 5 μM, listed as Pro-13", "value": "only slightly cytotoxic; also recorded: only weakly cytotoxic"}, {"measurement": "cell death, individual treatment", "setting": "HeLa cells [1]; 2 h", "value": 7, "unit": "%"}, {"measurement": "fraction cell survival relative to cells incubated in absence of pro-13", "setting": "HeLa cells [1]; MMS 0.1 mM + pro-13 2 h, then 4 h additional incubation with pro-13 5 μM", "value": "1/7"}, {"measurement": "cells survive", "setting": "HeLa cells [1]; MMS 0.1 mM + pro-13 2 h, then 8 h additional incubation with pro-13 5 μM", "value": "0.20±0.02% and 0.2%"}, {"measurement": "decrease in fraction cell survival", "setting": "HeLa cells [1]; pro-13 5 μM + BLM 2 μM vs BLM alone", "value": "more than 2 fold"}, {"measurement": "fraction survival", "setting": "HeLa cells [1]; pro-13 5 μM + MMS 0.1 mM, 2 h", "value": "0.23 and 0.21±0.04"}, {"measurement": "fraction survival lower than expected from agents used separately", "setting": "HeLa cells [1]; pro-13 5 μM + MMS 0.1 mM, 2 h", "value": "approximately 3.4 fold"}, {"measurement": "enhancement (potentiation) of MMS cytotoxicity", "setting": "HeLa cells [1]; pro-13 5 μM + MMS 0.2 mM", "value": "~13", "unit": "fold"}, {"measurement": "enhancement (potentiation) of MMS cytotoxicity", "setting": "HeLa cells [1]; pro-13 5 μM + MMS 0.2 mM, listed as Pro-13", "value": "approximately 13 fold"}, {"measurement": "cells survived", "setting": "HeLa cells [1]; pro-13 5 μM + MMS 0.2 mM, longer reaction time (2 h)", "value": "< 2", "unit": "%"}, {"measurement": "cells survive", "setting": "HeLa cells [1]; pro-13 5 μM co-incubated with BLM 2 μM", "value": 43, "unit": "%"}, {"measurement": "abasic site repair", "setting": "HeLa cells [2]; HeLa cells", "value": "inhibited"}, {"measurement": "AP/dRP sites/10^5 bp", "setting": "HeLa cells [2]; HeLa, MMS 0.3 mM + pro-13 5 μM", "value": "28.0 ± 1.4", "unit": "sites/10^5 bp"}, {"measurement": "AP/dRP sites/10^5 bp", "setting": "HeLa cells [2]; HeLa, MMS 0.4 mM + pro-13 5 μM", "value": "33.0 ± 1.5", "unit": "sites/10^5 bp"}, {"measurement": "increase in ARP reactive (abasic) sites vs MMS alone", "setting": "HeLa cells [2]; HeLa, MMS + pro-13 5 μM", "value": "approximately 3 fold"}, {"measurement": "AP/dRP sites/10^5 bp", "setting": "HeLa cells [2]; HeLa, pro-13 5 μM, no MMS", "value": "4.6 ± 1.0", "unit": "sites/10^5 bp"}]}
